# From patent US8501446B2 (Vertex Pharmaceuticals Incorporated, priority 2004, dated 2013)
# Experiments:
# Format in all cases: biochemical
# [1] = biological target: JAK2 (Homo sapiens, UniProt O60674); test: JAK2 inhibition assay (radioactive enzyme assay, as for JAK3); settings: average Ki if more than one value determined
# Procedure: (§1) Compounds were screened for their ability to inhibit JAK3 using a standard radioactive enzyme assay. 1.5 μL/well of a DMSO stock containing serial dilutions of a compound of the present invention (concentrations ranging from 667 μM to 46 nM) was placed in a 96 well polycarbonate plate. 50 μL per well of kinase buffer (100 mM HEPES (pH 7.4), 10 mM MgCl2, 25 mM NaCl, 1 mM DTT, and 0.01% bovine serum albumin (BSA)) containing 2 μM poly(Glu)4Tyr and 10 μM ATP was also added to the plate. To initiate the reaction, 50 μL kinase buffer containing 2 nM JAK3 enzyme was added. Final ATP concentration was 5 μM [γ-^33P] ATP (200 μCi ^33P ATP/μmol ATP (Perkin Elmer, Cambridge, Mass.). After 20 minutes at room temperature (25° C.), the reaction was stopped by adding 50 μL 20% trichloroacetic acid (TCA)/0.4 mM ATP to each well. The entire content of each well was then transferred to a 96 well glass fiber filter plate using a TomTek Cell Harvester. After washing, 60 μL scintillation fluid was added and ^33P incorporation detected using a Perkin Elmer TopCount. After removing mean background values for all of the data points the data was fit using Prism software to obtain a Ki(app). Inhibition of JAK2 was measured as above except that final poly(Glu)4Tyr concentration was 15 μM and final ATP concentration was 12 μM.
# [2] = biological target: T1, ROCK I (AA 6-553) (Homo sapiens, UniProt Q13464); test: ROCK inhibition assay, standard coupled enzyme system ("Enzyme"); settings: enzyme-linked assay
# T1 construct: ROCK I (AA 6-553)
# T1 sequence (Q13464 6-553, species assumed): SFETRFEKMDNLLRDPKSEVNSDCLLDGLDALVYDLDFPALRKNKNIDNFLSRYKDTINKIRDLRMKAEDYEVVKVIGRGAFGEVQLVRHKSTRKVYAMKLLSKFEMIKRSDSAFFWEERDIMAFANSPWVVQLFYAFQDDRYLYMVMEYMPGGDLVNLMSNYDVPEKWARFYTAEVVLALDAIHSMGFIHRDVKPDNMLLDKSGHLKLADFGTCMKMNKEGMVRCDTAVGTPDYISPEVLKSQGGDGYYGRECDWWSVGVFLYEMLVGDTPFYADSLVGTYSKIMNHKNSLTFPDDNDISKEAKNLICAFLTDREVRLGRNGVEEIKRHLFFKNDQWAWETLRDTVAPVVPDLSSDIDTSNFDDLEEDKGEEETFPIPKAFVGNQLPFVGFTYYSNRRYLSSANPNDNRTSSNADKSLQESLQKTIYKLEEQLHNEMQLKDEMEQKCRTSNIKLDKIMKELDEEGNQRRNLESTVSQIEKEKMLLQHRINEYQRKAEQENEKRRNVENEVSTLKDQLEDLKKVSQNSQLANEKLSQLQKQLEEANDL
# Method in brief: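 ROCK I (AA 6-553) at 45 nM and 30 °C with 45 μM ATP and 200 μM peptide, in 100 mM HEPES pH 7.5, 10 mM MgCl2, 25 mM NaCl, 2 mM DTT, 1.5% DMSO. ADP output read by a PK/LDH coupled system: 2.5 mM PEP, 350 μM NADH, 30 μg/ml PK, 10 μg/ml LDH.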
# [3] = biological target: T2, JAK3 (Homo sapiens, UniProt P52333); test: JAK3 inhibition assay (standard radioactive enzyme assay); settings: average Ki if more than one value determined
# T2 sequence (P52333 1-1124): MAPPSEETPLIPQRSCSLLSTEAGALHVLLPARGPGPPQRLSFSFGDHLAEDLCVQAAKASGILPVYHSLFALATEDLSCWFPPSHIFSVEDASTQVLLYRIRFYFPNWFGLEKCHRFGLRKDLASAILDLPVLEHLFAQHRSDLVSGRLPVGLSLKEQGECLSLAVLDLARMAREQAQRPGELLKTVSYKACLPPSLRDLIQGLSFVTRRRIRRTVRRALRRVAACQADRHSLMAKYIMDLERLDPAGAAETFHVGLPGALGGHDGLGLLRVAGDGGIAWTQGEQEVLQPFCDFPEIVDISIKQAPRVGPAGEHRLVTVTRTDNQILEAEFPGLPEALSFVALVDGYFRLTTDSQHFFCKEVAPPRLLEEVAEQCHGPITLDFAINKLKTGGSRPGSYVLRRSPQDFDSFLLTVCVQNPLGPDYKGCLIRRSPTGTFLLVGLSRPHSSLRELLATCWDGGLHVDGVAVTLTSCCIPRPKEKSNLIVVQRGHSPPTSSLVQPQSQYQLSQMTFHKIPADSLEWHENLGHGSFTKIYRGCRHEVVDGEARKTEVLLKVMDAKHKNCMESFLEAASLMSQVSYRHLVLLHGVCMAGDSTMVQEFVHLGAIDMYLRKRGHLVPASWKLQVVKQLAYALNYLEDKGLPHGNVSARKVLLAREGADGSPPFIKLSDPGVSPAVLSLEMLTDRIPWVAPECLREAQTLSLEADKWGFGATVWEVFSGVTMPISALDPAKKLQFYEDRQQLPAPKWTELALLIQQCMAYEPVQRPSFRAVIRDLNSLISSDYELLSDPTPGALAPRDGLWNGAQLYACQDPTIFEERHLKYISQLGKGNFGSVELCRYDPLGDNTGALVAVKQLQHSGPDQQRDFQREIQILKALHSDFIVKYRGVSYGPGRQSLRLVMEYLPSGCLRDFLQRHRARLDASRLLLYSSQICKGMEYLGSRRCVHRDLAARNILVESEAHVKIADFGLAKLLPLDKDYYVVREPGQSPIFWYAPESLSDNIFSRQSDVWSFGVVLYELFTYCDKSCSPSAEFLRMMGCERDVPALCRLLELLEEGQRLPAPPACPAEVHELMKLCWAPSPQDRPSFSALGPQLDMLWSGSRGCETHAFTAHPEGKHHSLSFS
# Procedure: as §1
# [4] = biological target: T3, full length Aurora-A (AA 1-403) (Homo sapiens, UniProt O14965); test: Aurora-A inhibition assay, standard coupled enzyme system; settings: average Ki if more than one value determined
# T3 construct: full length Aurora-A (AA 1-403)
# T3 sequence (O14965 1-403): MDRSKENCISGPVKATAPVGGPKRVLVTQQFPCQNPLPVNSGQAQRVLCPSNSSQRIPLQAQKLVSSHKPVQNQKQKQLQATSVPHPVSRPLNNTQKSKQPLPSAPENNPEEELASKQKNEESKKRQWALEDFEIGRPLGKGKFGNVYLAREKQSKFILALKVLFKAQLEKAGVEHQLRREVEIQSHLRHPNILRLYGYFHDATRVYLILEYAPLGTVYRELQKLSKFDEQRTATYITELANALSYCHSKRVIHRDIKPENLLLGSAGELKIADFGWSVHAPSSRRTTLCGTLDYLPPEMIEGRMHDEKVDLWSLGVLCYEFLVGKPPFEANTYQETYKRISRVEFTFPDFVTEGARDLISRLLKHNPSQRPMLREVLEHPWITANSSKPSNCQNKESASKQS
# Sequence of JAK2 (O60674 whole entry, species assumed): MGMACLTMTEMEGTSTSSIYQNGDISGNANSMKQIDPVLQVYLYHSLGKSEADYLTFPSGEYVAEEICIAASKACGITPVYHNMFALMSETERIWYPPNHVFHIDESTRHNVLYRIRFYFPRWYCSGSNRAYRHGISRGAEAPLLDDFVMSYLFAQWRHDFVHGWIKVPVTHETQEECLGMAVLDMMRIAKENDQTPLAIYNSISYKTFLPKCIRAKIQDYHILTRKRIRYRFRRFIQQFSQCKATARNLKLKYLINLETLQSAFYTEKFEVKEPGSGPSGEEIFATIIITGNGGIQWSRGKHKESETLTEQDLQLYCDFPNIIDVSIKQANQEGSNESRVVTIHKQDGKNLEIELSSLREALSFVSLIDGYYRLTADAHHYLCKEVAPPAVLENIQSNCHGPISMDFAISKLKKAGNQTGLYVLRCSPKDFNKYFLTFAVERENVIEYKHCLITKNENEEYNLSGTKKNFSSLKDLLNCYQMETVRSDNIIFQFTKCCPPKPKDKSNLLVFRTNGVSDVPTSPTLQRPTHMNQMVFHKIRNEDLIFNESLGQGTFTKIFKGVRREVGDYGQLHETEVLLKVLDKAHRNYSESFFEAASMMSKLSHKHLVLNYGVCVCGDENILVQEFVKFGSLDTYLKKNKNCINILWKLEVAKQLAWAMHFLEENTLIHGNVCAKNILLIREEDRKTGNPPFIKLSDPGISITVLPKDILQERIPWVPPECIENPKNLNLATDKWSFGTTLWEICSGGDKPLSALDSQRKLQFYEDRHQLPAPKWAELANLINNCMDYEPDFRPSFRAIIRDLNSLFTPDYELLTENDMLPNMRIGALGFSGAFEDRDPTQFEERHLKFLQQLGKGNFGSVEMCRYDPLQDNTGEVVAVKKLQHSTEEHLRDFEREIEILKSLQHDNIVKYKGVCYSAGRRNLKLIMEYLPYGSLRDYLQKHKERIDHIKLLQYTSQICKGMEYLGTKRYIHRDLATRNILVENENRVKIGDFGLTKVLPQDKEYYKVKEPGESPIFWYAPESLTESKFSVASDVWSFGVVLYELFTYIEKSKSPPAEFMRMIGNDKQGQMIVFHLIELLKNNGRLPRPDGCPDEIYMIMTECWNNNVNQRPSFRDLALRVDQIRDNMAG
Compound,Ki [1],Ki [2],Ki [3],Ki [4]
Cc1cnc2[nH]cc(-c3cccc(NCc4ccccc4)n3)c2c1 [Compound 39],< 500 nM,500 to 5000 nM,< 500 nM,< 500 nM
CC(=O)N1[C@H](C)CN(c2cccc(-c3c[nH]c4ncc(C)cc34)n2)C[C@@H]1C [Compound 41],< 500 nM,500 to 5000 nM,< 500 nM,< 500 nM
O=C(O)c1ccc(-c2c[nH]c3ncc(Cl)cc23)nc1NCc1ccccc1 [Compound 42],< 500 nM,500 to 5000 nM,< 500 nM,< 500 nM
CC(=O)N1[C@H](C)CN(c2cccc(-c3c[nH]c4ncc(C(=O)N5CCNCC5)cc34)n2)C[C@@H]1C [Compound 56],> 5000 nM,,500 to 5000 nM,500 to 5000 nM
O[C@H]1Cc2ccccc2[C@H]1Nc1cccc(-c2c[nH]c3ncc(Cl)cc23)n1 [Compound 136],< 500 nM,< 500 nM,< 500 nM,
O[C@@H]1Cc2ccccc2[C@@H]1Nc1cccc(-c2c[nH]c3ncc(Cl)cc23)n1 [Compound 137],< 500 nM,500 to 5000 nM,< 500 nM,
C=CC(=O)Nc1cnc2[nH]cc(-c3cccc(N4CCCN(C(=O)CC#N)CC4)n3)c2c1 [Compound 138],< 500 nM,500 to 5000 nM,< 500 nM,
C=CC(=O)Nc1cnc2[nH]cc(-c3cccc(N4CCCN(C(C)=O)CC4)n3)c2c1 [Compound 139],< 500 nM,500 to 5000 nM,< 500 nM,
CC(=O)Nc1cnc2[nH]cc(-c3cccc(N4CCCN(C(C)=O)CC4)n3)c2c1 [Compound 140],< 500 nM,500 to 5000 nM,< 500 nM,
CCC(=O)Nc1cnc2[nH]cc(-c3cccc(N4CCCN(C(C)=O)CC4)n3)c2c1 [Compound 141],< 500 nM,500 to 5000 nM,< 500 nM,
CC(C)Oc1cccc(-c2c[nH]c3ncc(Cl)cc23)c1 [Compound 143],500 to 5000 nM,500 to 5000 nM,< 500 nM,
CN(C)c1cccc(-c2c[nH]c3ncc(Cl)cc23)c1 [Compound 144],< 500 nM,500 to 5000 nM,< 500 nM,
Clc1cnc2[nH]cc(-c3cccc(NCc4ccccc4)c3)c2c1 [Compound 145],< 500 nM,500 to 5000 nM,< 500 nM,
CC(=O)N1[C@H](C)CN(c2cccc(-c3c[nH]c4ncc(Cl)cc34)c2)C[C@@H]1C [Compound 146],< 500 nM,500 to 5000 nM,< 500 nM,
O=C(O)c1cc(NCc2ccccc2)cc(-c2c[nH]c3ncc(Cl)cc23)c1 [Compound 147],< 500 nM,500 to 5000 nM,< 500 nM,
Nc1cc(C(=O)O)cc(-c2c[nH]c3ncc(Cl)cc23)c1 [Compound 148],500 to 5000 nM,< 500 nM,< 500 nM,
CC(=O)N1CCCN(c2cc(C#N)cc(-c3c[nH]c4ncc(Cl)cc34)n2)CC1 [Compound 149],< 500 nM,500 to 5000 nM,< 500 nM,
CC(=O)Nc1cc(-c2c[nH]c3ncc(Cl)cc23)nc(N2C[C@@H](C)N(C(C)=O)[C@@H](C)C2)c1 [Compound 160],< 500 nM,500 to 5000 nM,< 500 nM,
CC(=O)N1[C@H](C)CN(c2cccc(-c3c[nH]c4ncc(NC(=O)[C@H]5CCCCN5)cc34)n2)C[C@@H]1C [Compound 171],< 500 nM,500 to 5000 nM,< 500 nM,

Compound,Ki [1],Ki [2],Ki [3],Ki [4]
CC(=O)N1[C@H](C)CN(c2cccc(-c3c[nH]c4ncc(NC(=O)c5ccccc5Cl)cc34)n2)C[C@@H]1C [Compound 173],< 500 nM,< 500 nM,< 500 nM,
O=C(O)Cc1cccc(-c2c[nH]c3ncc(Cl)cc23)c1 [Compound 178],500 to 5000 nM,500 to 5000 nM,500 to 5000 nM,
CCC(C)C(=O)Nc1cnc2[nH]cc(-c3cccc(N4C[C@@H](C)N(C(C)=O)[C@@H](C)C4)n3)c2c1 (stereo partly drawn) [Compound 180],< 500 nM,500 to 5000 nM,< 500 nM,
Clc1cnc2[nH]cc(-c3ccccc3)c2c1 [Compound 183],< 500 nM,500 to 5000 nM,< 500 nM,
Clc1cnc2[nH]cc(-c3ccccn3)c2c1 [Compound 184],500 to 5000 nM,500 to 5000 nM,< 500 nM,
Clc1cnc2[nH]cc(-c3cccc(CNc4ccccc4)c3)c2c1 [Compound 186],< 500 nM,,< 500 nM,< 500 nM
CC(=O)N1[C@H](C)CN(c2cccc(-c3c[nH]c4ncc(NC(=O)c5ccc(F)cc5)cc34)n2)C[C@@H]1C [Compound 189],< 500 nM,500 to 5000 nM,< 500 nM,
CC(=O)N1[C@H](C)CN(c2cccc(-c3c[nH]c4ncc(OCc5ccccc5)cc34)n2)C[C@@H]1C [Compound 193],< 500 nM,< 500 nM,< 500 nM,
CC(=O)N1[C@H](C)CN(c2cccc(-c3c[nH]c4ncc(OCCCN(C)C)cc34)n2)C[C@@H]1C [Compound 194],< 500 nM,500 to 5000 nM,< 500 nM,
Clc1cnc2[nH]cc(-c3ccc4ccccc4n3)c2c1 [Compound 195],500 to 5000 nM,500 to 5000 nM,< 500 nM,
Cc1cc(C(F)(F)F)cc(-c2c[nH]c3ncc(Cl)cc23)n1 [Compound 196],> 5000 nM,500 to 5000 nM,500 to 5000 nM,
Cc1cc(-c2c[nH]c3ncc(Cl)cc23)nc2ccccc12 [Compound 197],500 to 5000 nM,500 to 5000 nM,< 500 nM,
Cc1cc(-c2c[nH]c3ncc(Cl)cc23)c2ccccc2n1 [Compound 198],> 5000 nM,500 to 5000 nM,500 to 5000 nM,
Clc1cnc2[nH]cc(-c3ccc4ccccc4c3)c2c1 [Compound 199],500 to 5000 nM,500 to 5000 nM,< 500 nM,
Clc1cnc2[nH]cc(-c3ccc4ncccc4c3)c2c1 [Compound 200],500 to 5000 nM,500 to 5000 nM,< 500 nM,
COc1cccc(-c2c[nH]c3ncc(Cl)cc23)n1 [Compound 201],< 500 nM,500 to 5000 nM,< 500 nM,
Clc1cnc2[nH]cc(-c3cccc4cccnc34)c2c1 [Compound 202],500 to 5000 nM,500 to 5000 nM,500 to 5000 nM,
CC(C)(O)c1cccc(-c2c[nH]c3ncc(Cl)cc23)n1 [Compound 203],< 500 nM,500 to 5000 nM,< 500 nM,
